# Measured values taken from patent US6492530B1, “Amorphous form of cell cycle inhibitor having improved solubility and bioavailability” (Hoffmann-La Roche Inc., priority 2000, dated 2002).
# “Also recorded” adds a separate entry of the source.
# Key:
# [1] = Bioavailability / pharmacokinetics in beagle dogs after single oral dose; format: in vivo
# Procedure: Additionally, preparations containing crystalline compound of formula I (Examples IIIB and IIIC) and amorphous compound of formula I (Example IIA) were evaluated for bioavailability in beagle dogs with body weight of approximately 10 kg. Each dog was given a formulation containing 90 mg of compound of formula I. Blood samples were collected from each dog prior to dosing (0 h) and at 0.5, 1, 2, 4, 6, 8, 12, 24, 36 and 48 hours after dosing. EDTA was used as an anticoagulant. Each plasma sample was separated after cold centrifugation and frozen in an amber vial at a minimum of −60° C. before analysis. Compound of formula I was extracted from plasma and the plasma concentration of compound of formula I was determined using a positive ion TurbolonSpray LC-MS/MS assay[HPLC using HP1100 LC system, Hewleft-Packard, Inc. (Agilent Technologies, Wilmington, Del.) and Mass Spectrometer using PE-Sciex API-3+ (Perkin-Elmer Instruments, Wilton, Conn.), Ionization mode: Turbulonspray, 500C, positive ion] The calibration range was 1 to 1,000 ng/mL using a 100-μL plasma sample. […]
# [2] = Two-stage dissolution method (water, then 6% SLS in phosphate buffer pH 6.8); format: physicochemical; conditions: FIG. 6 dissolution profile, Example IIA versus Example IIIA
# Procedure: The formulation of Example IIIA containing crystalline compound of formula I (Example IIIA) and the formulation of (Example IIA) containing amorphous compound of formula I were evaluated for dissolution by a two-stage (two dissolution media) dissolution method. At Stage I, 300 mL of deionized water at 37°±0.5° C. using paddles at 75 rpm was used. At Stage II, 600 mL of 6% w/v Sodium Lauryl Sulfate in 0.015M Phosphate Buffer, pH 6.8 equilibrated at 37°±0.5° C., was carefully added into the dissolution vessel 25 minutes after the Stage I dissolution was initiated. Sample aliquots were taken at different time intervals and analyzed by UV spectrophotometry.
# [3] = Stability of the amorphous form under accelerated storage (powder X-ray diffraction); format: physicochemical; conditions: 40° C./75% RH, closed glass vial for 6 months, independent of form stabilizers; FIG. 5
# physchem = conditions: aqueous media at physiological pHs, aqueous buffer
# Excerpt: A crystalline form of the compound of formula I is known. See, e.g., U.S. Pat. No. Re. 36,736. […] (Id. column 22, lines 5-6). […] See, e.g. U.S. Pat. No. 6,048,887 and EP 0 988,863.
SMILES,bioavailability as compared to the crystalline form ([1]; amorphous versus crystalline form),solubility versus crystalline form [2],retention of amorphous form on storage [3],solubility (physchem) [µg/mL],"bioavailability ([1]; dog, in vivo, in dogs, previously known crystalline form (background statement)) [%]"
"Cn1cc(C2=C(c3cn(C)c4cc([N+](=O)[O-])ccc34)C(=O)NC2=O)c2ccccc21 [amorphous compound of formula I, 3-(1-methyl-3-indolyl)-4-(1-methyl-6-nitro-3-indolyl)-1H-pyrrole-2,5,-dione]",approximately 15 fold,much more soluble,maintained its amorphous properties; also recorded: remained in its amorphous form,,
"Cn1cc(C2=C(c3cn(C)c4cc([N+](=O)[O-])ccc34)C(=O)NC2=O)c2ccccc21 [crystalline compound of formula I, 3-(1-methyl-3-indolyl)-4-(1-methyl-6-nitro-3-indolyl)-1H-pyrrole-2,5,-dione, reference compound]",,,,< 10,< 5
